From ChEMBL document CHEMBL1201862, “PubChem BioAssay data set” (2004)
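In this assay, cells in 96-well plates receive the compound at five concentrations for 48 hours. Endpoints are linearly interpolated between the surrounding concentrations. GI50 = concentration required for 50% inhibition of growth.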 Activity calls are given as the source filed them. Cut-off read from the data, not from the text of the source: active = GI50 up to about 1.1 µM and inactive = higher.

Tests used:
Assay in all cases: inhibition of tumour cell growth, NCI panel, 48 h
RXF 393 = tested on: RXF 393
OVCAR-4 = tested on: OVCAR-4
HL-60 = tested on: HL-60
SNB-75 = tested on: SNB-75
Malme-3M = tested on: Malme-3M
SF-295 = tested on: SF-295
U-251 = tested on: U-251
SK-OV-3 = tested on: SK-OV-3
OVCAR-3 = tested on: OVCAR-3
COLO 205 = tested on: COLO 205
DMS-114 = tested on: DMS-114
NCI-H226 = tested on: NCI-H226
MOLT-4 = tested on: MOLT-4
SN12C = tested on: SN12C
HOP-62 = tested on: HOP-62
CAKI-1 = tested on: CAKI-1
HCC 2998 = tested on: HCC 2998
NCI/ADR-RES = tested on: NCI/ADR-RES
MDA-N = tested on: MDA-N
DU-145 = tested on: DU-145

Measured: GI50

C=CCN(N=O)C(=O)NCCCCC(NC(C)=O)C(=O)NCc1ccccc1 (stereo not drawn)
inactive: RXF 393 > 100 µM | OVCAR-4 > 100 µM | HL-60 > 100 µM | SNB-75 > 100 µM | Malme-3M > 100 µM | SF-295 > 100 µM | U-251 > 100 µM | SK-OV-3 > 100 µM | OVCAR-3 > 100 µM | COLO 205 > 100 µM | DMS-114 > 100 µM | NCI-H226 42.5 µM | MOLT-4 > 100 µM | SN12C > 100 µM | HOP-62 > 100 µM | CAKI-1 > 100 µM

c1ccc2c(c1)n1nnnc1c1nnnn21
inactive: RXF 393 87.3 µM | OVCAR-4 32.4 µM | SNB-75 24.6 µM | Malme-3M > 100 µM | HCC 2998 > 100 µM | SF-295 77.8 µM | U-251 > 100 µM | SK-OV-3 > 100 µM | OVCAR-3 > 100 µM | COLO 205 > 100 µM | DMS-114 83.4 µM | NCI-H226 > 100 µM | MOLT-4 > 100 µM | SN12C > 100 µM | HOP-62 > 100 µM | CAKI-1 > 100 µM

N/N=C1\C(=O)N(c2ccc(Cl)c(Cl)c2)C(=O)C1C(=O)Nc1ccc(Cl)c(Cl)c1 (stereo not drawn)
inactive: RXF 393 > 100 µM | OVCAR-4 80.4 µM | HL-60 74.5 µM | SNB-75 > 100 µM | Malme-3M > 100 µM | HCC 2998 62.4 µM | SF-295 31.9 µM | U-251 31.1 µM | OVCAR-3 49.9 µM | DMS-114 57.5 µM | MOLT-4 42.4 µM | SN12C 51.5 µM | HOP-62 41.4 µM

CC12Nc3ccccc3C1=C(c1ccccc1)CC1C(=O)OC(=O)C12 (stereo not drawn)
inactive: RXF 393 > 100 µM | OVCAR-4 > 100 µM | HL-60 > 100 µM | SNB-75 1.86 µM | Malme-3M > 100 µM | HCC 2998 > 100 µM | SF-295 > 100 µM | U-251 > 100 µM | OVCAR-3 > 100 µM | COLO 205 > 100 µM | DMS-114 > 100 µM | MOLT-4 > 100 µM | SN12C > 100 µM | HOP-62 > 100 µM

Cc1cc(C)c(N)c(C)c1N
inactive: RXF 393 > 100 µM | HL-60 > 100 µM | Malme-3M > 100 µM | HCC 2998 > 100 µM | SF-295 > 100 µM | U-251 > 100 µM | SK-OV-3 > 100 µM | OVCAR-3 > 100 µM | COLO 205 > 100 µM | DMS-114 > 100 µM | MOLT-4 > 100 µM | SN12C > 100 µM | HOP-62 > 100 µM

Cc1[nH]c2cc([N+](=O)[O-])ccc2c1[N+](=O)[O-]
inactive: RXF 393 13.6 µM | OVCAR-4 14.1 µM | HL-60 20.6 µM | SNB-75 19 µM | Malme-3M 13.9 µM | HCC 2998 15 µM | SF-295 17.3 µM | U-251 19.9 µM | OVCAR-3 25.1 µM | COLO 205 13.7 µM | DMS-114 9.93 µM | NCI-H226 14.2 µM | MOLT-4 19.5 µM | SN12C 25.6 µM | HOP-62 7.28 µM | CAKI-1 19 µM

CC(C)c1cccc(C(C)C)c1NC(=O)C(=O)CC(=O)CC(c1ccccc1)c1c(O)oc2ccccc2c1=O (stereo not drawn)
inactive: RXF 393 > 100 µM | OVCAR-4 > 100 µM | HL-60 > 100 µM | Malme-3M > 100 µM | HCC 2998 > 100 µM | SF-295 > 100 µM | SK-OV-3 > 100 µM | OVCAR-3 > 100 µM | COLO 205 > 100 µM | DMS-114 > 100 µM | MOLT-4 > 100 µM | SN12C > 100 µM | HOP-62 > 100 µM | CAKI-1 > 100 µM

Cc1ccsc1C(=S)Nc1ccc(Cl)c(/C=N/OC(C)C)c1
inactive: RXF 393 20.5 µM | OVCAR-4 14.8 µM | HL-60 10.3 µM | SNB-75 48.2 µM | NCI/ADR-RES 30 µM | Malme-3M 35.1 µM | HCC 2998 22.9 µM | SF-295 30.1 µM | U-251 36.6 µM | SK-OV-3 55.5 µM | MDA-N 37.8 µM | DU-145 92.5 µM | OVCAR-3 44.8 µM | COLO 205 18.7 µM | NCI-H226 31.3 µM | MOLT-4 11.2 µM | SN12C 32.5 µM | HOP-62 64.9 µM | CAKI-1 46.3 µM

CCC1(c2ccccc2)C(=O)N=C(c2ccccc2)N1CCc1ccccc1 (stereo not drawn)
inactive: RXF 393 > 100 µM | OVCAR-4 > 100 µM | HL-60 > 100 µM | SNB-75 > 100 µM | NCI/ADR-RES > 100 µM | Malme-3M > 100 µM | HCC 2998 > 100 µM | SF-295 > 100 µM | U-251 > 100 µM | SK-OV-3 > 100 µM | MDA-N > 100 µM | DU-145 > 100 µM | OVCAR-3 > 100 µM | COLO 205 > 100 µM | NCI-H226 > 100 µM | MOLT-4 > 100 µM | SN12C > 100 µM | HOP-62 > 100 µM | CAKI-1 > 100 µM

COc1ccc(C2=C(Cl)c3cc(OC)c(OC)cc3C2OC)cc1OC (stereo not drawn)
inactive: RXF 393 > 100 µM | OVCAR-4 > 100 µM | HL-60 8.11 µM | SNB-75 > 100 µM | Malme-3M > 100 µM | HCC 2998 > 100 µM | SF-295 > 100 µM | COLO 205 26.9 µM | DMS-114 14.2 µM | NCI-H226 > 100 µM | MOLT-4 > 100 µM | SN12C > 100 µM | HOP-62 > 100 µM | CAKI-1 > 100 µM

O=C1CCC(=O)N1Sc1ccccc1
inactive: RXF 393 > 100 µM | OVCAR-4 > 100 µM | HL-60 > 100 µM | SNB-75 72.9 µM | SF-295 > 100 µM | U-251 > 100 µM | SK-OV-3 > 100 µM | OVCAR-3 > 100 µM | COLO 205 > 100 µM | DMS-114 > 100 µM | MOLT-4 > 100 µM | SN12C > 100 µM | HOP-62 > 100 µM | CAKI-1 > 100 µM

CC(=O)/C=C1/c2ccccc2N(C(C)=O)C1O (stereo not drawn)
inactive: RXF 393 > 100 µM | OVCAR-4 > 100 µM | HL-60 > 100 µM | SNB-75 > 100 µM | HCC 2998 > 100 µM | SF-295 > 100 µM | U-251 > 100 µM | SK-OV-3 > 100 µM | OVCAR-3 > 100 µM | COLO 205 > 100 µM | DMS-114 > 100 µM | MOLT-4 > 100 µM | SN12C > 100 µM | HOP-62 > 100 µM | CAKI-1 > 100 µM

COC(=O)c1ccc(N/C=C(/C#N)c2ccsc2)cc1
inactive: RXF 393 11.4 µM | HL-60 > 100 µM | SNB-75 6.68 µM | Malme-3M 16.8 µM | HCC 2998 18.4 µM | SF-295 7.18 µM | U-251 6.92 µM | OVCAR-3 9.66 µM | COLO 205 67.1 µM | DMS-114 15 µM | NCI-H226 20.7 µM | MOLT-4 > 100 µM | SN12C > 10 µM | HOP-62 13.3 µM | CAKI-1 15.1 µM
